Read-outs that look alike come from different tables or passages of the source. Where a SMILES comes first, the peptide text is derived from it.
How the values were obtained:
S. aureus = assay: microbe, parasite or virus in culture; format: cell-based, Staphylococcus aureus
Description: (§1) For the antibacterial activity, a minimal inhibitory concentration (MIC) of a peptide in which fungus bodies were not split in an MH medium with sufficient nutrients was measured.
(§2) Specifically, the strains described in the following [Table 2] were purchased and diluted with an MH medium such that the number of bacteria was 2×10^6 colony-forming units (CFUs), 100 μl of each of the diluted strains was aliquoted into a 96-well microtiter plate, and then 100 μl of a peptide solution diluted with the MH medium (solution diluted stepwise at 2: 1) was added to each well.

S. epidermidis = assay: microbe, parasite or virus in culture; format: cell-based, Staphylococcus epidermidis
Description: as §1, §2

P. aeruginosa = assay: microbe, parasite or virus in culture; format: cell-based, Pseudomonas aeruginosa
Description: as §1, §2

MDRST 8009 = format: cell-based, Salmonella typhimurium; details: agent alone
Description: as §1, §2

MDREC 1229 [1] = assay: microbe, parasite or virus in culture; format: cell-based, Escherichia coli
Description: as §1, §2

E. coli [2] = assay: microbe, parasite or virus in culture; format: cell-based, Escherichia coli; details: 16 h
Description: as §1, §2

MDRAB 12035 [3] = assay: MIC of antimicrobial peptide during combined treatment with antibiotic; format: cell-based, Acinetobacter baumannii
Description: (§3) Specifically, the strains described in [Table 2] were prepared and diluted with an MH medium such that the number of bacteria was 2×10^6 colony-forming units (CFUs) per 1 ml, 100 μl of the diluted strains was each aliquoted into a 96-well microtiter plate, and then 50 μl of a peptide solution diluted with the MH medium from the MIC value (solution diluted stepwise at 2: 1) was added to each well. Thereafter, the MIC value of each mixed solution was determined by diluting the antibiotic solution with the MH medium, adding 50 μl of the diluted solution to each well, and performing an experiment even under a reversed condition.

B. subtilis = assay: microbe, parasite or virus in culture; format: cell-based, Bacillus subtilis
Description: as §1, §2

A. baumannii [4] = assay: MIC of antibiotic during combined treatment with antimicrobial peptide; format: cell-based, Acinetobacter baumannii; details: for Antibiotic MIC, Erythromycin / Antibiotic MIC, Linezolid / Antibiotic MIC, Vancomycin: A. baumannii
Description: (§4) Thereafter, the MIC value of each mixed solution was determined by diluting the antibiotic solution with the MH medium, adding 50 μl of the diluted solution to each well, and performing an experiment even under a reversed condition.

MDREC 1229 [5] = format: cell-based, Escherichia coli
Description: as §3

E. coli [6] = format: cell-based, Escherichia coli; details: E. coli
Description: as §3

E. coli [7] = assay: MIC of antibiotic during combined treatment with antimicrobial peptide; format: cell-based, Escherichia coli; details: for Antibiotic MIC, Erythromycin / Antibiotic MIC, Linezolid / Antibiotic MIC, Vancomycin: E. coli
Description: as §4

MDRAB 12035 [8] = assay: microbe, parasite or virus in culture; format: cell-based, Acinetobacter baumannii
Description: as §1, §2

A. baumannii [9] = assay: microbe, parasite or virus in culture; format: cell-based, Acinetobacter baumannii
Description: as §1, §2

[10] = linezolid 64 μg/ml (Conc./MIC 1/8)
[11] = linezolid 512 μg/ml (Conc./MIC 1)
[12] = vancomycin 512 μg/ml (Conc./MIC 1/2)
[13] = vancomycin 1024 μg/ml (Conc./MIC 1)
[14] = combined with peptide at 1 μg/ml
[15] = combined with peptide at 2 μg/ml
[16] = combined with peptide at 4 μg/ml
[17] = combined with peptide at 6 μg/ml
[18] = combined with peptide at 8 μg/ml
[19] = combined with peptide at 16 μg/ml
[20] = combined with peptide at 32 μg/ml
[21] = combined with peptide at 64 μg/ml

CC[C@H](C)[C@H](NC(=O)[C@H](CCCCN)NC(=O)[C@H](Cc1c[nH]c2ccccc12)NC(=O)[C@@H](N)CCCNC(=N)N)C(=O)N[C@@H](Cc1ccccc1)C(=O)N[C@@H](CCCCN)C(=O)N[C@@H](CCCCN)C(=O)N[C@H](C(=O)N1CCC[C@H]1C(=O)N[C@@H](CCCCN)C(=O)N[C@@H](CC(C)C)C(=O)N[C@@H](CC(C)C)C(=O)N[C@@H](Cc1c[nH]cn1)C(=O)N[C@@H](CCC(=O)O)C(=O)N[C@@H](Cc1ccccc1)C(=O)N[C@@H](CCCCN)C(=O)N[C@@H](CCCCN)C(=O)N[C@@H](Cc1ccccc1)C(N)=O)[C@@H](C)CC [PapMA-12, RWK IFK KIP KLL HEF KKF-NH2] (H-RWKIFKKIPKLLHEFKKF-NH2; N-terminus assumed)
2 µg/mL: Peptide MIC during treatment with erythromycin (MDRAB 12035 [3]; erythromycin 8 μg/ml (Conc./MIC 1/4)) | Peptide MIC during treatment with linezolid (MDRAB 12035 [3]; [10]) | Peptide MIC during treatment with vancomycin (MDRAB 12035 [3]; [12]) | Peptide MIC during treatment with vancomycin (MDRAB 12035 [3]; vancomycin […] (Conc./MIC 1/4)) | Peptide MIC during treatment with vancomycin (MDRAB 12035 [3]; vancomycin […] (Conc./MIC 1/8)) | Antibiotic MIC, Vancomycin (A. baumannii [4]; [17]) | Peptide MIC during treatment with antibiotic (MDREC 1229 [5]; erythromycin 32 μg/ml (Conc./MIC 1/8)) | Peptide MIC during treatment with antibiotic (MDREC 1229 [5]; erythromycin 64 μg/ml (Conc./MIC 1/4)) | Peptide MIC during treatment with antibiotic (MDREC 1229 [5]; linezolid […] (Conc./MIC 1/4)) | Peptide MIC during treatment with antibiotic (MDREC 1229 [5]; [12]) | Antibiotic MIC, Erythromycin (E. coli [7]; erythromycin combined with peptide at 4 μg/ml) | Antibiotic MIC, Linezolid (E. coli [7]; linezolid combined with peptide at 6 μg/ml)
128 µg/mL: Antibiotic MIC, Linezolid (A. baumannii [4]; [14]) | Antibiotic MIC, Linezolid (E. coli [7]; linezolid combined with peptide at 2 μg/ml) | Antibiotic MIC, Vancomycin (E. coli [7]; vancomycin combined with peptide at 2 μg/ml)
0.25 µg/mL: Antibiotic MIC, Erythromycin (A. baumannii [4]; [17])
at least twice as high: Antibacterial activity relative to PapMA-1 (A. baumannii [9]; A. baumannii and S. typhimurium)
1 µg/mL: Peptide MIC during treatment with erythromycin (MDRAB 12035 [3]; erythromycin 16 μg/ml (Conc./MIC 1/2)) | Peptide MIC during treatment with linezolid (MDRAB 12035 [3]; linezolid […] (Conc./MIC 1/2)) | Peptide MIC during treatment with linezolid (MDRAB 12035 [3]; linezolid […] (Conc./MIC 1/4)) | Peptide MIC during treatment with vancomycin (MDRAB 12035 [3]; [13]) | Antibiotic MIC, Erythromycin (A. baumannii [4]; [16]) | Antibiotic MIC, Linezolid (A. baumannii [4]; [17]) | Peptide MIC during treatment with antibiotic (MDREC 1229 [5]; erythromycin […] (Conc./MIC 1/2)) | Peptide MIC during treatment with antibiotic (MDREC 1229 [5]; linezolid […] (Conc./MIC 1/2)) | Peptide MIC during treatment with antibiotic (MDREC 1229 [5]; [13]) | Antibiotic MIC, Erythromycin (E. coli [7]; erythromycin combined with peptide at 6 μg/ml)
32 µg/mL: Minimal inhibitory concentration MIC (MDRST 8009) | Antibiotic MIC, Linezolid (A. baumannii [4]; [15]) | Antibiotic MIC, Erythromycin (E. coli [7]; erythromycin combined with peptide at 2 μg/ml)
higher level than the PapMA-1 peptide: Synergistic effect of antibacterial activity with existing antibiotics compared with PapMA-1 (A. baumannii [4]; A. baumannii and MDRAB 12035) | Synergistic effect of antibacterial activity with existing antibiotics compared with PapMA-1 (E. coli [7]; E. coli and MDREC1229)
0 µg/mL: Peptide MIC during treatment with erythromycin (MDRAB 12035 [3]; erythromycin 32 μg/ml (Conc./MIC 1)) | Peptide MIC during treatment with linezolid (MDRAB 12035 [3]; [11]) | Antibiotic MIC, Erythromycin (A. baumannii [4]; [18]) | Antibiotic MIC, Linezolid (A. baumannii [4]; [18]) | Antibiotic MIC, Vancomycin (A. baumannii [4]; [18]) | Antibiotic MIC, Erythromycin (A. baumannii [4]; [19]) | Antibiotic MIC, Linezolid (A. baumannii [4]; [19]) | Antibiotic MIC, Vancomycin (A. baumannii [4]; [19]) | Antibiotic MIC, Erythromycin (A. baumannii [4]; [20]) | Antibiotic MIC, Linezolid (A. baumannii [4]; [20]) | Antibiotic MIC, Vancomycin (A. baumannii [4]; [20]) | Antibiotic MIC, Erythromycin (A. baumannii [4]; [21]) | Antibiotic MIC, Linezolid (A. baumannii [4]; [21]) | Antibiotic MIC, Vancomycin (A. baumannii [4]; [21]) | Peptide MIC during treatment with antibiotic (MDREC 1229 [5]; erythromycin […] (Conc./MIC 1)) | Peptide MIC during treatment with antibiotic (MDREC 1229 [5]; [11]) | Peptide MIC (E. coli [6]; with Erythromycin […] (Conc./MIC 1)) | Peptide MIC (E. coli [6]; with Linezolid […] (Conc./MIC 1)) | Peptide MIC (E. coli [6]; with Vancomycin 1024 μg/ml (Conc./MIC 1)) | Antibiotic MIC, Erythromycin (E. coli [7]; erythromycin combined with peptide at 8 μg/ml) | Antibiotic MIC, Erythromycin (E. coli [7]; erythromycin combined with peptide at 16 μg/ml) | Antibiotic MIC, Erythromycin (E. coli [7]; erythromycin combined with peptide at 32 μg/ml) | Antibiotic MIC, Erythromycin (E. coli [7]; erythromycin combined with peptide at 64 μg/ml) | Antibiotic MIC, Linezolid (E. coli [7]; linezolid combined with peptide at 8 μg/ml) | Antibiotic MIC, Linezolid (E. coli [7]; linezolid combined with peptide at 16 μg/ml) | Antibiotic MIC, Linezolid (E. coli [7]; linezolid combined with peptide at 32 μg/ml) | Antibiotic MIC, Linezolid (E. coli [7]; linezolid combined with peptide at 64 μg/ml) | Antibiotic MIC, Vancomycin (E. coli [7]; vancomycin combined with peptide at 8 μg/ml) | Antibiotic MIC, Vancomycin (E. coli [7]; vancomycin combined with peptide at 16 μg/ml) | Antibiotic MIC, Vancomycin (E. coli [7]; vancomycin combined with peptide at 32 μg/ml) | Antibiotic MIC, Vancomycin (E. coli [7]; vancomycin combined with peptide at 64 μg/ml)
16 µg/mL: Minimal inhibitory concentration MIC (MDREC 1229 [1]) | Peptide MIC, peptide alone (MDREC 1229 [1]) | Antibiotic MIC, Erythromycin (A. baumannii [4]; [14]) | Antibiotic MIC, Vancomycin (E. coli [7]; vancomycin combined with peptide at 4 μg/ml)
64 µg/mL: Minimal inhibitory concentration MIC (P. aeruginosa) | Antibiotic MIC, Vancomycin (A. baumannii [4]; [15]) | Antibiotic MIC, Erythromycin (E. coli [7]; erythromycin combined with peptide at 1 μg/ml)
>128 µg/mL: Minimal inhibitory concentration MIC (S. aureus) | Minimal inhibitory concentration MIC (S. epidermidis) | Minimal inhibitory concentration MIC (B. subtilis) | Antibiotic MIC, Vancomycin (A. baumannii [4]; [14]) | Antibiotic MIC, Linezolid (E. coli [7]; linezolid combined with peptide at 1 μg/ml) | Antibiotic MIC, Vancomycin (E. coli [7]; vancomycin combined with peptide at 1 μg/ml)
4 µg/mL: Peptide MIC during treatment with erythromycin (MDRAB 12035 [3]; erythromycin 4 μg/ml (Conc./MIC 1/8)) | Antibiotic MIC, Linezolid (A. baumannii [4]; [16]) | Peptide MIC during treatment with antibiotic (MDREC 1229 [5]; [10]) | Peptide MIC during treatment with antibiotic (MDREC 1229 [5]; vancomycin […] (Conc./MIC 1/4)) | Peptide MIC during treatment with antibiotic (MDREC 1229 [5]; vancomycin […] (Conc./MIC 1/8))
8 µg/mL: Minimal inhibitory concentration MIC (E. coli [2]) | Antibiotic MIC, Erythromycin (A. baumannii [4]; [15]) | Antibiotic MIC, Vancomycin (A. baumannii [4]; [16]) | Antibiotic MIC, Linezolid (E. coli [7]; linezolid combined with peptide at 4 μg/ml) | Antibiotic MIC, Vancomycin (E. coli [7]; vancomycin combined with peptide at 6 μg/ml) | Minimal inhibitory concentration MIC (MDRAB 12035 [8]) | Peptide MIC, peptide alone (MDRAB 12035 [8]) | Minimal inhibitory concentration MIC (A. baumannii [9])

Reference: patent publication US11214594B2, “Antimicrobial peptide having synergistic antibacterial effect with antibiotics on multidrug resistant bacteria, and use thereof” (priority 2016, dated 2022)
